From US6235791A, “Use of amines to produce drugs for preventing tumor cell proliferation” (Sanofi-Synthelabo, priority 1996, dated 2001)

How the values were obtained:
human myeloma RPMI 8226 = test: MTT colorimetric proliferation test, 5 days; type: cell-based; conditions: 120 h, read-out: percentage of cell proliferation relative to the untreated control taken as 100%
Description: (§1) Among other cells used, the following lines were routinely cultured in RPMI medium supplemented with 10% foetal calf serum (FCS):
(§2) The antitumour activity is measured according to the colorimetry method using MTT, 3-(4,5-dimethylthiazole-2,5-diphenyltetrazolium) bromide as described by Mosmann T., Journ. of Im. Methods; 1983, 65, 55.
(§3) This colorimetric assay makes it possible to measure quantitatively the antitumour activity of a solution containing a compound used according to the invention.
(§4) According to the procedure used, the suspended cells (such as the myeloma cells) are inoculated at 2×10^3 cells/ml in 1 ml wells in defined medium. The adherent cells (such as the MCF-7 cells) are inoculated at 5×10^4 cells/ml in 1 ml wells in RPMI medium+0.5% FCS overnight. The next day, the cell carpet is washed twice and replaced by the defined medium.
(§5) The defined medium corresponds to: RPMI+10 μg/ml insulin+10 μg/ml human transferrin.
(§6) In order to carry out this test, cells are maintained in the presence of the solution containing a compound used according to the invention for 5 days, and the MTT is then added to the culture medium.
(§7) The 5 day period which was selected corresponds to the optimum time for the activity. After culturing for 5 days, the proliferation of the cells is measured by the test described above. The optical density at 570 nm is measured. A blue coloration develops in the wells where the cells are still alive. The intensity of the coloration is proportional to the quantity of live cells.

human myeloma U266 = test: MTT colorimetric proliferation test, 5 days; type: cell-based; conditions: U-266, 120 h, read-out: percentage of cell proliferation relative to the untreated control taken as 100%
Description: as §1, §2, §3, §4, §5, §6, §7

293 = test: MTT colorimetric proliferation test, 5 days; type: cell-based; conditions: Homo sapiens, read-out: percentage of cell proliferation relative to the untreated control taken as 100%
Description: as §1
human kidney carcinoma 294
as §2, §3, §4, §5, §6, §7

LCC1 p23-24 (MCF-7LCC1) = test: proliferation of mammary epithelial cells, IC50 after 6 days; type: cell-based; conditions: Homo sapiens, Epithelial cell, 144 h, 6 days of treatment
Description: (§8) Another study was also performed in order to determine the effect of SR 31747 on the in vitro and in vivo growth of mammary and prostate epithelial tumour cells.
(§9) The study consisted in evaluating the potential antitumour activity of SR 31747 on the growth of a variety of cancerous breast epithelial lines. The study is carried out in vitro on cell cultures, as well as in vivo after inoculation of tumoral mammary lines in "nude" athymic mice.
(§10) The cell lines which were used are as follows:
(§11) The hormone-sensitive MCF-7 line originates from a pleural effusion of a breast adenocarcinoma. The antioestrogen-resistant MCF-7LY2 cells were obtained from the MCF-7LCC1 and MCF-7LCC2 lines were developed in nude mice, after inoculation of the MCF-7 cells. The two lines are oestrogen-independent. The MCF-7CC2 cells are also antioestrogen-resistant. The MCF-7AZTD5 line is derived from the MCF-7 line after stable transfection with the H-ras oncogene. The MCF-7AZTD5 cells are antioestrogen-resistant in vitro. All of these lines are maintained on DMEM/F12 (1/1, vol/vol) containing 10% decomplemented foetal calf serum and 16 ng/ml of human insulin. The MCF-7LCC2 line is cultured in the permanent presence of 10^-7 M hydroxytamoxifen. The MDA-MB231 tumoral mammary epithelial cells are oestrogen- and antioestrogen-insensitive. They are cultured in L15 medium supplemented with 10% FCS, 1% essential amino acids and 10 μg/ml of human insulin.
(§12) All the lines are maintained at 37° C. in a humid air/CO2 (95%/5%) atmosphere, except for the MDA-MB231 cells which are cultured in the absence of CO2. THe cell lines are checked regularly free of mycoplasms.
(§13) Table B--Effect of SR 31747 on the proliferation of mammary epithelial cells. Determination of the IC50 after 6 days of treatment--medium changed every 48 hours

LY2 p22-23 (MCF-7LY2) = test: as above; type: cell-based; conditions: Homo sapiens, Epithelial cell, 144 h; LY2 p22-23, 10% FCS, 6 days of treatment
Description: as §8, §9, §10, §11, §12, §13

MCF7 22HTB RPMI p + 4 = test: as above; type: cell-based; conditions: Homo sapiens, 144 h; MCF7 22HTB RPMI p + 4, 0.1% FCS, 6 days of treatment
Description: as §8, §9, §10, §11, §12, §13

MCF7 AZTD5 = test: as above; type: cell-based; conditions: Homo sapiens, MCF7, 144 h, 6 days of treatment
Description: as §8, §9, §10, §11, §12, §13

MCF7 AZ = test: as above; type: cell-based; conditions: Homo sapiens, 144 h, 10% FCS, 6 days of treatment
Description: as §8, §9, §10, §11, §12, §13

MCF7 RPMI p6-7 = test: as above; type: cell-based; conditions: Homo sapiens, MCF7, 144 h, 6 days of treatment
Description: as §8, §9, §10, §11, §12, §13

MCF7 p23-25 = test: as above; type: cell-based; conditions: Homo sapiens, MCF7, 144 h, 6 days of treatment
Description: as §8, §9, §10, §11, §12, §13

MDA MB231 p131 = test: as above; type: cell-based; conditions: 6 days of treatment
Description: as §8, §9, §10, §11, §12, §13

MCF7 + E2 10-9M = test: proliferation of mammary epithelial cells, IC50 after 6 days, with oestradiol; type: cell-based, human; conditions: for IC50: MCF7 + E2 10^-9M, 0.5% FCS, 6 days of treatment
Description: as §8, §9, §10, §11, §12, §13

tumour cells = test: biochemical and pharmacological studies illustrated above (binding and antiproliferative tests)
Description: The membranes were prepared as follows: 10 MCF-7 cells are homogenized for 10 seconds on a Polytron® in 10 ml of Hepes® buffer pH=7.4 containing: 210 mM D-mannitol, 70 mM sucrose, 1 mM EDTA, 0.3 mM PMSF. The homogenate is centrifuged at 650 xg for 15 minutes and the supernatant is then taken up and centrifuged for 1 at 100,000 xg. The pellet is resuspended in Tris-HCl buffer pH=7.4 at a concentration of 1 mg/ml and stored at-70° C. The total binding is carried out in a 5 ml tube into which the following are introduced:
The non-specific binding is performed by adding 25 μl of 10^-5 M SR 31747 to the above solution (final volume 250 μl) and then incubating for 30 at 25° C. The free and bound fractions are separated by placing 200 μl on a column of 1 ml of Sephadex® LH 20 and the radioactivity is then counted on the first 2 ml obtained by eluting the column with 50 mM Tris buffer ph=7.4.
The 5 day period which was selected corresponds to the optimum time for the activity. After culturing for 5 days, the proliferation of the cells is measured by the test described above. The optical density at 570 nm is measured. […] The intensity of the coloration is proportional to the quantity of live cells.

## CCN(C/C=C\c1ccc(C2CCCCC2)c(Cl)c1)C1CCCCC1 [SR 31747, cis-N-Cyclohexyl-N-ethyl [3-(3-chloro-4-cyclo-hexylphenyl)allyl]amine]
Human myeloma RPMI 8226; RPMI 8226, 10 pM
  activity at 10 pM: 100%
Human myeloma RPMI 8226; RPMI 8226, 100 pM
  activity at 0.0001 µM: 91%
Human myeloma RPMI 8226; RPMI 8226, 1 nM
  activity at 0.001 µM: 79%
Human myeloma RPMI 8226; RPMI 8226, 10 nM
  activity at 0.01 µM: 66%
Human myeloma RPMI 8226; RPMI 8226, 100 nM
  activity at 0.1 µM: 54%
Human myeloma RPMI 8226; RPMI 8226, 1 μM
  activity at 1 µM: 9%
Human myeloma RPMI 8226; RPMI 8226, 10 μM
  activity at 10 µM: 6%
Human myeloma U266; U266, 10 pM
  activity at 10 pM: 100%
Human myeloma U266; U266, 100 pM
  activity at 0.0001 µM: 100%
Human myeloma U266; U266, 1 nM
  activity at 0.001 µM: 95%
Human myeloma U266; U266, 10 nM
  activity at 0.01 µM: 82%
Human myeloma U266; U266, 100 nM
  activity at 0.1 µM: 67%
Human myeloma U266; U266, 1 μM
  activity at 1 µM: 52%
Human myeloma U266; U266, 10 μM
  activity at 10 µM: 11%
293; HEK293, 120 h, 293, 10 pM
  activity at 10 pM: 100%
293; HEK293, 120 h, 293, 100 pM
  activity at 0.0001 µM: 84%
293; HEK293, 120 h, 293, 1 nM
  activity at 0.001 µM: 80%
293; HEK293, 120 h, 293, 10 nM
  activity at 0.01 µM: 43%
293; HEK293, 120 h, 293, 100 nM
  activity at 0.1 µM: 36%
293; HEK293, 120 h, 293, 1 μM
  activity at 1 µM: 10%
293; HEK293, 120 h, 293, 10 μM
  activity at 10 µM: 7%
LCC1 p23-24 (MCF-7LCC1); LCC1 p23-24, 0.1% FCS
  IC50: 2 nM
LCC1 p23-24 (MCF-7LCC1); LCC1 p23-24, 5% FCS
  IC50: 1000 nM
LY2 p22-23 (MCF-7LY2)
  IC50: > 100 nM
MCF7 22HTB RPMI p + 4
  IC50: 2 nM
MCF7 AZTD5; MCF7 AZTD5, 0.1% FCS
  IC50: 0.2 nM
MCF7 AZTD5; MCF7 AZTD5, 10% FCS
  IC50: 600 nM
MCF7 AZ
  IC50: > 1000 nM
MCF7 RPMI p6-7; MCF7 RPMI p6-7, 0% FCS
  IC50: 3 nM
MCF7 RPMI p6-7; MCF7 RPMI p6-7, 0.1% FCS
  IC50: 7 nM
MCF7 p23-25; MCF7 p23-25, 0.1% FCS
  IC50: 2 nM
MCF7 p23-25; MCF7 p23-25, 0.5% FCS
  IC50: 100 nM
MDA MB231 p131; Homo sapiens, MDA-MB-231, 144 h, MDA MB231 p131, 0.1% FCS
  IC50: 2 nM
MDA MB231 p131; Homo sapiens, MDA-MB-231, 144 h, MDA MB231 p131, 10% FCS
  IC50: 800 nM
MDA MB231 p131; MDA MB231 p131, 10% FCS
  IC50: 400 nM
MCF7 + E2 10-9M; Homo sapiens, MCF7, 144 h
  IC50: 400 nM
MCF7 + E2 10-9M
  IC50: 300 nM
MCF7 + E2 10-9M; hormone-sensitive MCF-7 line
  reversal of the stimulatory action of oestradiol: incapable of reversing the stimulatory action of oestradiol
Tumour cells
  activity in the biochemical and pharmacological studies: best activity
